The subject of one data set is HT-29. The data set can be described thus: Cytotoxicity against human HT-29 cells after 48 hrs using resazurin by microplate fluorometer analysis. It is filed as functional, cell-based. The note with it: HT-29, 48 h.
The test system of data set [1] is HeLa. Kind of data set: Induction of cell cycle arrest in human HeLa cells assessed as accumulation at G0/G1 phase at 10 nM after 18 hrs by propidium iodide based flow cytometric analysis (reference value: 43.9 %). It is filed as functional.
Data set [2] deals with HeLa. Kind of data set: Induction of cell cycle arrest in human HeLa cells assessed as accumulation at G0/G1 phase at 30 nM after 18 hrs by propidium iodide based flow cytometric analysis (reference value: 43.9 %). It is filed as functional.
The subject of data set [3] is HeLa. Kind of data set: Induction of cell cycle arrest in human HeLa cells assessed as accumulation at G2/M phase at 10 nM after 18 hrs by propidium iodide based flow cytometric analysis (reference value: 16.2 %). It is filed as functional.
The test system of data set [4] is HeLa. Kind of data set: Induction of cell cycle arrest in human HeLa cells assessed as accumulation at S phase at 30 nM after 18 hrs by propidium iodide based flow cytometric analysis (reference value: 39.9 %). It is filed as functional.
In data set [5] the test system is HeLa. Kind of data set: Induction of cell cycle arrest in human HeLa cells assessed as accumulation at S phase at 10 nM after 18 hrs by propidium iodide based flow cytometric analysis (reference value: 39.9 %). It is filed as functional.
Data set [6] in a line: Binding affinity to bovine tubulin after 1 hr by spectrofluorometric analysis. Further details: species or system Bos taurus.
Data set [7] deals with HeLa. Kind of data set: Induction of cell cycle arrest in human HeLa cells assessed as accumulation at G2/M phase at 30 nM after 18 hrs by propidium iodide based flow cytometric analysis (reference value: 16.2 %). It is filed as functional.
Data set [8] has as its system HeLa. The data set can be described thus: Induction of cell cycle arrest in human HeLa cells assessed as accumulation at S phase at 100 nM after 18 hrs by propidium iodide based flow cytometric analysis (reference value: 39.9 %). It is filed as functional.
Data set [9] deals with DU-145. Kind of data set: Antitumor activity against human DU145 cells xenografted in nu/nu mouse assessed as tumor growth inhibition at […], ip administered on day 1, 3, 5, 8 and […] measured on day 40 relative to control. It is filed as functional. Particulars: DU-145, ip, read-out: TGI.
The next data set relates to Mus musculus. Kind of data set: Toxicity in nu/nu mouse assessed as weight loss at 1.25 to 7.5 mg/kg, ip after 40 days. It is filed as organism-based. Particulars: in vivo, 960 h.
Data set [10] relates to HUVEC. Kind of data set: Cytotoxicity against HUVEC after 48 hrs using resazurin by microplate fluorometer analysis. It is filed as cell-based. Particulars: Homo sapiens.
Data set [11] concerns HeLa. The data set can be described thus: Induction of cell cycle arrest in human HeLa cells assessed as accumulation at G0/G1 phase at 100 nM after 18 hrs by propidium iodide based flow cytometric analysis (reference value: 43.9 %). It is filed as functional.
Data set [12] concerns HUVEC. Kind of data set: Induction of microtubule depolymerization in HUVEC after 30 mins by DAPI staining method. It is filed as cell-based. Particulars: Homo sapiens.
Data set [13] has as its system DU-145. The data set can be described thus: Antitumor activity against human DU145 cells xenografted in nu/nu mouse assessed as tumor growth inhibition at 7.5 mg/kg, ip administered on day 1, 3, 5, 8 and […] measured on day 40 relative to control. The note with it: DU-145, ip, route intraperitoneal, read-out: TGI. It is filed as functional.
Data set [14] has as its system HeLa. Kind of data set: Induction of cell cycle arrest in human HeLa cells assessed as accumulation at G2/M phase at 100 nM after 18 hrs by propidium iodide based flow cytometric analysis (reference value: 16.2 %). It is filed as functional.
Data set [15] deals with DU-145. Kind of data set: Antitumor activity against human DU145 cells xenografted in nu/nu mouse assessed as tumor growth inhibition at 3.75 mg/kg, ip administered on day 1, 3, 5, 8 and […] measured on day 40 relative to control. It is filed as functional. Particulars: DU-145, ip, route intraperitoneal, read-out: TGI.
For data set [16], the system named is DU-145. The note with it: Homo sapiens.
A short description of data set [17]: Inhibition of bovine brain tubulin polymerization by thermostatic spectrophotometer. Details: species or system Bos taurus.
Data set [18] has as its system HeLa. The data set can be described thus: Induction of cell cycle arrest in human HeLa cells assessed as accumulation at G0/G1 phase at 3 nM after 18 hrs by propidium iodide based flow cytometric analysis (reference value: 43.9 %). It is filed as functional.
Data set [19] concerns HeLa. Kind of data set: Induction of cell cycle arrest in human HeLa cells assessed as accumulation at S phase at 3 nM after 18 hrs by propidium iodide based flow cytometric analysis (reference value: 39.9 %). It is filed as functional.
For data set [20], the system named is HeLa. The data set can be described thus: Induction of cell cycle arrest in human HeLa cells assessed as accumulation at G2/M phase at 3 nM after 18 hrs by propidium iodide based flow cytometric analysis (reference value: 16.2 %). It is filed as functional.

With `COc1cc(/C=c2\[nH]c(=O)/c(=C/c3nc[nH]c3C(C)(C)C)[nH]c2=O)cc(OC)c1`, in the data set on HT-29, the midpoint of inhibition, the IC50, lay at 45.4 nM.
For the compound `COc1cc2c(c(OC)c1OC)-c1ccc(OC)c(=O)cc1[C@@H](NC(C)=O)CC2` [COLCHICINE], the Activity turned out to be 47.5% in the data set on HeLa [1]; 1.3% in the data set on HeLa [2]; 21% in the data set on HeLa [3]; 8.9% in the data set on HeLa [4]; 31.5% with HeLa [5]; 89.9% in the data set on HeLa [7]. In the data set with HT-29, this compound displayed an IC50 of 16 nM. Besides, in data set [6], binding was put at a Kd of […].
Turning to `CC(C)(C)c1[nH]cnc1/C=c1\[nH]c(=O)/c(=C/c2ccccc2)[nH]c1=O` [PLINABULIN], the Activity is 44.6% in the data set with HeLa [1]; 4.2% in the data set with HeLa [2]; 17.9% in the data set on HeLa [3]; 40.4% in the data set with HeLa [4]; 2.4% with HeLa [8]; “Non-toxic” in the data set on Mus musculus. Further, the Activity came out at 37.5% in the data set on HeLa [5], 55.3% in the data set on HeLa [7], 0% in the data set with HeLa [11] and 97.6% with HeLa [14]. For the same compound, in the data set with DU-145 [9], the inhibition in vivo at […] amounted to 29%. Moreover, the IC50 with HUVEC [10] came to 11 nM; in data set [17], 1310 nM. Besides, the Kd in data set [6] is 1000 nM. Moreover, the ED100 in the data set with HUVEC [12] was determined as 3 nM. Moreover, in the data set on DU-145 [13], the inhibition in vivo at 7.5 mg/kg is 58.5%. The inhibition in vivo at 3.75 mg/kg in the data set with DU-145 [15] is 38.6%. For the same compound, in the data set with DU-145 [16], the TGI result is “Dose-dependent effect”.
For the compound `COc1ccc(/C=C\c2cc(OC)c(OC)c(OC)c2)cc1O` [COMBRETASTATIN A4], the Activity with HeLa [1] was found to be 0.4%; in the data set with HeLa [3], 90.7%; in the data set on HeLa [5], 8.8%; in the data set on HeLa [18], 34.6%; in the data set on HeLa [19] it was 28.1%; in the data set with HeLa [20], 37.4%. Besides, the IC50 stood at 2.4 nM with HUVEC [10] and 550 nM in data set [17]. The compound further yielded an ED100 in the data set on HUVEC [12] of 10 nM.
